Assay [1] addresses T1, α-amylase from porcine pancreas (Sus scrofa, UniProt P00690).
T1 construct: purchased Sigma-Aldrich (St. Louis, MO, USA); host or cells: porcine pancreas
T1 sequence (P00690 16-511): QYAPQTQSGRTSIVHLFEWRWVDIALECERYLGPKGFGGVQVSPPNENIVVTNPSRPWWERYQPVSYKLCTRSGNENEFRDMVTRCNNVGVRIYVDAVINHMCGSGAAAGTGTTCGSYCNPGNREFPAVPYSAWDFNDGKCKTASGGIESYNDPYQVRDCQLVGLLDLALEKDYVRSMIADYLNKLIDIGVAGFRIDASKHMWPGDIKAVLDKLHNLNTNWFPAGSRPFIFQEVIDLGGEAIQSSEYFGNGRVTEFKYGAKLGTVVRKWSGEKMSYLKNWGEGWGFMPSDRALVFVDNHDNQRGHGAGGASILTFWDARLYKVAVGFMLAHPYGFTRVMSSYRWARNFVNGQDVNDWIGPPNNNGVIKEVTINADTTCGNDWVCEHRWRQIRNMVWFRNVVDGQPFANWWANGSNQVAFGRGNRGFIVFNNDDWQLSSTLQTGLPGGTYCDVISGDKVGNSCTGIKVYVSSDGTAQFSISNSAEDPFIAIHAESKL
The assay is described as follows: biochemical. The assay is classed as biochemical. The text has this:
(§1) Trizma hydrochloride (Tris-HCl) and bovine serum albumin (BSA) were obtained from Sigma–Aldrich (Steinheim, Germany). Deionized water was produced using a Milli-Q water purification system (Millipore, Bedford, MA, USA). Dulbecco’s Modified Eagle Medium (DMEM) was collected from Gibco (Japan), and fetal bovine serum (FBS) was also collected from Gibco (Waltham, MA, USA). Insulin and penicillin G/streptomycin were collected from Wako (Fujifilm Wako Pure Chemical Corporation, Osaka, Japan), the MTS kit was collected from Promega (Madison, WI, USA), and poly-2-hydroxyethyl methacrylate was collected from Sigma-Aldrich (Taufkirchen, Germany).
α-Amylase inhibitory activity was determined following the starch-iodine method with some modifications. A 1% starch solution was prepared by 1 g of starch in 10 mL of distilled water following gentle boiling and cooling into 100 mL. A reaction mixture, 25 μL sample (0–1 mM) and 50 μL α-amylase (5 U/mL) in phosphate buffer, was incubated at 37 °C for 10 min. Afterwards, the starch (100 μL, 1% w/v) solution was added to the mixture and incubated again at 37 °C for 10 min. […] After adding the iodine/iodide solution, based on the colour change, the absorbance was monitored at 630 nm for 10 min. […] The percentage of inhibition was calculated and results were expressed as IC50 (µM).

Assay [2] has as its target T2, Acetylcholinesterase from electric eel (Electrophorus electricus, UniProt O42275).
T2 construct: purchased Sigma-Aldrich (St. Louis, MO, USA) type VI-s; host or cells: electric eel
The assay is described as follows: biochemical. It counts as biochemical.
From the text: as §1
(§2) The cholinesterase inhibitory (AChE/BChE) properties were ascertained based on Ellman’s method, as previously described. […] In the AChE inhibitory assay, 25 µL of sample solution (0–1 mM) along with 50 µL of buffer B (50 mM Tris-HCl, pH 8 containing 0.1% BSA), 125 µL of DTNB (3 mM), and 25 µL of 0.05 U/mL AChE were incubated at 37 °C for 10 min. After incubation, 25 µL of acetylthiocholine iodide (5 mM) as AChE substrate was incorporated to the solution. The BChE activity was determined following the same protocol using 25 µL of 5 mM S-butyrylthiocholine chloride as BChE substrate and 0.05 U/mL BChE as enzyme. […] The percentage of inhibition was calculated and the results were expressed as IC50 (µM).

Assay [3] addresses T3, butyrylcholinesterase from equine serum (Equus caballus, UniProt P81908).
T3 construct: purchased Sigma-Aldrich (St. Louis, MO, USA); host or cells: equine serum
Kind of assay: BChE inhibition (Ellman's method). The assay is classed as biochemical.
From the text: as §1, §2
On the technique in general: Ellman's reagent forms a yellow product with free thiols.

In assay [4] the test system is Hs578T cells. Kind of assay: Cytotoxicity / cell viability (MTS assay), Hs578T. Particulars: for IC50: Homo sapiens, Hs-578T, TNBC cell line Hs578T, read-out: IC50 cytotoxic activity Hs578T; for reduction of the number of TNBC cells Hs578T: after three days of treatment at IC50. The assay is classed as cell-based. As to the method: (§3) The human TNBC cell lines Hs578T and MDA-MB-231 were obtained from the American Type Culture Collection and cultured in Dulbecco’s Modified Eagle Medium (DMEM) supplemented with fetal bovine serum (FBS) (10% v/v), insulin (Hs578T cell only), and penicillin G/streptomycin 1% (v/v) at 37 °C under 5% CO2. The absence of culture contamination by Mycoplasma species was confirmed before the experiments.
(§4) The activity of the selected compounds on breast cancer cell viability were determined employing the MTS assay. Briefly, 5 × 10^3 cells were seeded in each well of a 96-well plate for 24 h, and growth medium containing different compounds was added and incubated in different periods. A total of 20 µL of the MTS kit was added to each well, and the cells were incubated for 2 h. After incubation, the absorbance was measured at 490 nm with an enzyme-linked immunosorbent assay microplate reader (BioTek Instruments, USA). The absorbance value is directly proportional to the number of living cells.
Background: Tetrazolium assays rely on reduction of a dye to a coloured formazan, in cell work by metabolically active cells.

Assay [5] concerns MDA-MB-231 cells. Kind of assay: Cytotoxicity / cell viability (MTS assay), MDA-MB-231. Particulars: for IC50: Homo sapiens, TNBC cell line MDA-MB-231, read-out: IC50 cytotoxic activity MDA-MB-231; for reduction of the number of TNBC cells MDA-MB-231: after three days of treatment at IC50. The assay is classed as cell-based. The procedure: as §3, §4
Assay [6] deals with Hs578T cells. The assay is described as follows: Transwell cell migration assay, Hs578T. To be noted: at IC50; vs DMSO control. It counts as cell-based, human. The procedure:
as §3
(§5) The effects of the selected compounds on breast cancer cell migration were evaluated in transwell chambers according to a published protocol. Briefly, the Hs578T and MDA-MB-231 cells were treated with the tested compounds for 24 h, trypsinized, and washed twice with serum-free medium. Approximately 3 × 10^4 pretreated cells, suspended in 100 μL of the serum-free medium, were seeded to the upper chamber. The lower chambers were filled with approximately 500 μL of DMEM medium with 10% FBS and incubated for 12 h. After incubation, the cells from the upper surface were wiped off with cotton swabs, while the migrated cells on the opposite side of the transwell were washed twice with PBS, fixed with 4% paraformaldehyde, and finally stained with crystal violet solution. After 2 washes with water (Milli Q), several microscopic fields were taken randomly, and the migrated cells were counted using ImageJ software.

Assay [7] concerns MDA-MB-231 cells. The assay is described as follows: Transwell cell migration assay, MDA-MB-231. It counts as cell-based, human. To be noted: at IC50; vs DMSO control. The procedure: as §3, §5
The subject of assay [8] is Hs578T cells. The assay is described as follows: Tumor-sphere formation assay, Hs578T. It counts as cell-based, human. Particulars: in vitro tumor-sphere formation. The procedure:
as §3
(§6) Three-dimensional or tumor-sphere culture is a recently introduced in vitro technique which maintains a physiological environment which closely resembles that of in vivo conditions. This technique has now been widely used for the screening of anticancer moieties. In vitro tumor-sphere formation assay was performed following a reported protocol. Briefly, approximately 3 × 10^3 cells were resuspended in a poly-2-hydroxyethyl methacrylate coated 6-well plate containing a sphere-forming medium with or without tested compounds and incubated for one week. The number of tumor spheres were counted, and the diameter of each tumor sphere was measured.

Assay [9] has as its system MDA-MB-231 cells. The assay is described as follows: Tumor-sphere formation assay, MDA-MB-231. The assay is classed as cell-based, human. Particulars: in vitro tumor-sphere formation. As to the method:
as §3, §6

The mark [10] stands for this setting: mean ± SD (n = 3), mammalian α-amylase, read-out: IC50 α-Amylase.
[11] abbreviates: mean ± SD (n = 3), tested 0–1 mM.
The mark [12] stands for this setting: mean ± SD (n = 3), tested 0–1 mM, read-out: IC50 AChE.
[13] abbreviates: mean ± SD (n = 3), tested 0–1 mM, read-out: IC50 BChE.
Where [14] appears, read: mean ± SD (n = 3), mammalian α-amylase.

Where two headings read alike, the source gives them in different places. Some results are limits rather than exact numbers.

One may read the IC50 as the point on the concentration scale where inhibition reaches its midpoint.

T2 sequence (O42275 24-633): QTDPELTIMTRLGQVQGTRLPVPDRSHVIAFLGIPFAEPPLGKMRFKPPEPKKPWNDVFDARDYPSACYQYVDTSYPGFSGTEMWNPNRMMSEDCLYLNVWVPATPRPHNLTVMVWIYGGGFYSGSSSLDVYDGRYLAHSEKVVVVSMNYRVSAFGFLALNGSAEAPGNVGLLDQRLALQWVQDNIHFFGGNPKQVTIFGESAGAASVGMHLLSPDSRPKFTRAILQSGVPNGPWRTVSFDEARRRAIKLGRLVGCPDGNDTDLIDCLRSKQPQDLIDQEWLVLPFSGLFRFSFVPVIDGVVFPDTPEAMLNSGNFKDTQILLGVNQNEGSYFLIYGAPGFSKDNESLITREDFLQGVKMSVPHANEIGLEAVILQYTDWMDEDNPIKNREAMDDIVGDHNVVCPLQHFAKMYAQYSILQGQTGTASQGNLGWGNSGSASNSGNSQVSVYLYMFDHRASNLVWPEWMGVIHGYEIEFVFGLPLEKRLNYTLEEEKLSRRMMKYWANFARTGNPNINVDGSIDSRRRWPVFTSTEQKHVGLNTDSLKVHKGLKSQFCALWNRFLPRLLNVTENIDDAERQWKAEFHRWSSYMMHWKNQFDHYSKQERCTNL
T3 sequence (P81908 whole entry): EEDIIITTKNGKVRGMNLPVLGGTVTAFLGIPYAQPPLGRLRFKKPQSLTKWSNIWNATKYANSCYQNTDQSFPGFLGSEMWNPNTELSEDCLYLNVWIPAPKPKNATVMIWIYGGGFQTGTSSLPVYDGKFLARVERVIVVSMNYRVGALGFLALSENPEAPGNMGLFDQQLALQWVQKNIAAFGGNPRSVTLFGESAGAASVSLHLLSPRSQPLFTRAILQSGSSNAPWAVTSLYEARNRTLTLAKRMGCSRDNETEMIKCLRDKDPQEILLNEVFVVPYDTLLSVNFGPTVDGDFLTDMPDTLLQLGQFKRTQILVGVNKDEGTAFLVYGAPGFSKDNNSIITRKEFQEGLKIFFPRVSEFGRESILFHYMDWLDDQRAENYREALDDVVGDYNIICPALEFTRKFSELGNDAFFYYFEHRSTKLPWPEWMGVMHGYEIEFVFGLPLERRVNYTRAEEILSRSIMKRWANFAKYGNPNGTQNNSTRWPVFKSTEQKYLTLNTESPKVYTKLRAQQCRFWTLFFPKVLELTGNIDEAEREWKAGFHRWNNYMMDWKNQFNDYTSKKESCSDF

`O=C(O)C[C@H]1CCC(=O)[C@@H]1C/C=C\CCO[C@@H]1O[C@H](COC(=O)/C=C/c2ccc(O)c(O)c2)[C@@H](O)[C@H](O)[C@H]1O` [Compound 4, 6′-O-caffeoyl-12-glucopyranosyloxyjasmonic acid]: the IC50 was 13 ± 1.3 µM in [1] (setting [10]); more than 1000 µM in assay [2] (setting [12]); more than 1000 µM in assay [3] (setting [13]); 210 ± 5.1 µM with Hs578T cells [4]; 199 ± 3.1 µM in the assay on MDA-MB-231 cells [5]. The “IC50 AChE” value in [2] (setting [11]) is “no inhibitory activity”.

Regarding `COc1ccc(CCO[C@@H]2O[C@H](CO)[C@@H](OC(=O)/C=C/c3ccc(O)c(O)c3)[C@H](O[C@@H]3O[C@@H](C)[C@H](O)[C@@H](O)[C@H]3O)[C@H]2O)cc1OC` [Compound 7, brachynoside], the “IC50 α-Amylase” value in assay [1] (setting [14]) is “almost inactive”. The IC50 was 221 ± 24.5 µM in [1] (setting [10]), more than 1000 µM in [2] (setting [12]) and more than 1000 µM in assay [3] (setting [13]). In addition, the “IC50 AChE” value in assay [2] (setting [11]) is recorded as “no inhibitory activity”.

In the case of `CC1=CC(=O)CC(C)(C)[C@H]1CC[C@@H](C)O[C@@H]1O[C@H](CO)[C@@H](O)[C@H](O)[C@H]1O` [Compound 3, byzantionoside B], the “IC50 α-Amylase” value in assay [1] (setting [14]) is “almost inactive”. Moreover, the IC50 in assay [1] (setting [10]) is 284 ± 13.2 µM; in assay [2] (setting [12]), more than 1000 µM; in assay [3] (setting [13]), more than 1000 µM; in the assay on Hs578T cells [4], 94.7 ± 1.3 µM; in the assay with MDA-MB-231 cells [5] it was 118 ± 3.3 µM. Moreover, the “IC50 AChE” value in assay [2] (setting [11]) was “no inhibitory activity”. For the same molecule, in the assay with Hs578T cells [4], the “reduction of the number of TNBC cells Hs578T” value is listed as 44%. Moreover, in the assay on MDA-MB-231 cells [5], the “reduction of the number of TNBC cells MDA-MB-231” value was determined as 48%. The “inhibition of migration of Hs578T cell” value with Hs578T cells [6] is 50%. In addition, the “inhibition of migration of MDA-MB-231” value in the assay on MDA-MB-231 cells [7] is reported as 40%.

Turning to `CC1=C(C(=O)O)C2CC(=O)c3cc(CC(C)O)c(OC4OC(CO)C(O)C(O)C4OC4OC(CO)C(O)C(O)C4O)c(O)c3C2(C)CC1` [Compound 2, (5R,10S,16R)-11,16-dihydroxy-12-O-β-D-glucopyranosyl-(1→2)-β-D-glucopyranosyl-17(15→16),18(4→3)-diabeo-4-carboxy-3,8,11,13-abietatetraene-7-one], the half-maximal inhibitory concentration (IC50) is 64.6 ± 7.1 µM in [1], 139 ± 7.2 µM in [2] and more than 1000 µM in assay [3].

Take `COc1cc(/C=C/C(=O)O[C@H]2[C@H](O[C@@H]3O[C@@H](C)[C@H](O)[C@@H](O)[C@H]3O[C@@H]3O[C@H](CO)[C@@H](O)[C@H](O)[C@H]3O)[C@@H](O)[C@H](OCCc3ccc(O)c(O)c3)O[C@@H]2CO)ccc1O` [Compound 8, incanoside C]: the values for the IC50 in [1] (setting [10]), in assay [2] (setting [12]) and in assay [3] (setting [13]) were 19.8 ± 0.5 µM, 178 ± 11.3 µM and more than 1000 µM, respectively.

Consider `CC1OC(OC2C(O)C(OCCc3ccccc3)OC(CO)C2OC(=O)C=Cc2ccc(O)c(O)c2)C(O)C(O)C1O` (stereo not drawn) [Compound 5, jionoside C], for which the IC50 in [1] (setting [10]) is 24.9 ± 0.4 µM; in assay [2] (setting [12]), 160 ± 12.2 µM; in [3] (setting [13]), more than 1000 µM; in the assay on Hs578T cells [4], 85.3 ± 2.4 µM; in the assay with MDA-MB-231 cells [5], 96.5 ± 1.5 µM. In addition, the “reduction of the number of TNBC cells Hs578T” value with Hs578T cells [4] was 42%. Besides, the “reduction of the number of TNBC cells MDA-MB-231” value in the assay on MDA-MB-231 cells [5] was found to be 43%. In the assay with Hs578T cells [6], the “inhibition of migration of Hs578T cell” value was 43%. Besides, the “inhibition of migration of MDA-MB-231” value in the assay on MDA-MB-231 cells [7] turned out to be 37%. In addition, the “tumor-sphere size and number, Hs578T” value in the assay with Hs578T cells [8] was “reduced the cell size (Figure 5A,C) and the cell number significantly”. Besides, in the assay with MDA-MB-231 cells [9], the “tumor-sphere size and number, MDA-MB-231” value is “reduced the cell size (Figure 5A,C) and the cell number significantly”.

As for `CC1=C(CO)[C@@H]2CC(=O)c3cc(C[C@@H](C)O)c(O[C@@H]4O[C@@H](CO)C(O)[C@H](O)[C@@H]4O[C@@H]4O[C@H](CO)[C@@H](O)[C@H](O)[C@@H]4O)c(O)c3[C@@]2(C)CC1` (stereo partly drawn) [Compound 1, (5R,10S,16R)-11,16,19-trihydroxy-12-O-β-D-glucopyranosyl-(1→2)-β-D-glucopyranosyl-17(15→16),18(4→3)-diabeo-3,8,11,13-abietatetraene-7-one], the IC50 is 18.5 ± 0.6 µM in [1]; 191 ± 10.2 µM in [2]; more than 1000 µM in assay [3]; 128 ± 2.2 µM in the assay on Hs578T cells [4]; 122 ± 1.2 µM in the assay with MDA-MB-231 cells [5].

On to `COc1ccc(CCO[C@@H]2O[C@H](CO)[C@@H](OC(=O)/C=C/c3ccc(O)c(O)c3)[C@H](O[C@@H]3O[C@@H](C)[C@H](O)[C@@H](O)[C@H]3O)[C@H]2O)cc1O` [Compound 6, jionoside D], for which the 50% inhibitory concentration (IC50) in assay [1] (setting [10]) was 3.4 ± 0.2 µM; in assay [2] (setting [12]) it was more than 1000 µM; in assay [3] (setting [13]), more than 1000 µM. Moreover, the “IC50 AChE” value in [2] (setting [11]) is on record as “no inhibitory activity”.

(Values after PMC8306933 (Molecules, 2021).)
